US7112683B2, “Cyclic sulfone containing retroviral protease inhibitors” (priority 1992, dated 2006)
Read-outs that look alike come from different tables or passages of the source.

How the values were obtained:
HIV protease = HIV protease (Human immunodeficiency virus type 1 group M subtype B, UniProt P04585); test: HIV protease enzyme assay (fluorogenic substrate 2-aminobenzoyl-Ile-Nle-Phe(p-NO2)-Gln-ArgNH2); format: biochemical
Experimental: The compounds of the present invention are effective HIV protease inhibitors. […] The calculated IC50 indicates the concentration providing inhibition of 50%, i.e., the concentration at which the inhibitor compound reduces enzyme activity by 50%). The enzyme method is described below. The substrate is 2-aminobenzoyl-Ile-Nle-Phe(p-NO2)-Gln-ArgNH2. The positive control is MVT-101 [Miller, M. et al, Science, 246, 1149 (1989)]. The assay conditions are as follows: • Assay buffer: 20 mM sodium phosphate, pH 6.4 • 20% glycerol • 1 mM EDTA • 1 mM DTT • 0.1% CHAPS
The above described substrate is dissolved in DMSO, then diluted 10 fold in assay buffer. Final substrate concentration in the assay is […].
HIV protease is diluted in the assay buffer to a final concentration of glycerol is 18%. The test compound is dissolved in DMSO and diluted in DMSO to 10× the test concentration; […] of the enzyme preparation is added, the materials mixed and then the mixture is incubated at ambient temperature for 15 minutes. The enzyme reaction is initiated by the addition of […] of substrate. The increase in fluorescence is monitored at 4 time points (0, 8, 16 and 24 minutes) at ambient temperature. Each assay is carried out in duplicate wells.

HIV = test: EC50 of Table 1 (antiviral activity, method not described); format: cell-based
[1] = TD50 of Table 1 (toxic dose, method not described)
[2] = IC50 (range given for the listed examples), inhibition of the HIV enzyme, range over Examples 4, 4a, 7, 8 and 9
[3] = IC50, HIV protease, pH 6.4, ambient temperature
[4] = HIV protease, pH 6.4, ambient temperature, read-out: IC50

Molecule	IC50 (HIV protease; [2]) [nM]	IC50 (HIV protease; [3]) [nM]	IC50 (HIV protease; [4]) [nM]	EC50 (HIV) [nM]	TD50 [1]	IC50 (HIV protease; inhibition of the HIV enzyme, range over Examples 4, 4a, 7, 8 and 9, read-out: IC50 (range given for the listed examples)) [nM]
CC(C)CCN(C[C@@H](O)[C@H](Cc1ccccc1)NC(=O)C1CCCS(=O)(=O)C1)C(=O)NC(C)(C)Cn1ccnc1 (some centres unmarked) [Example 4a]	3 to 140	46				
CC(C)(C)NC(=O)[C@@H]1C[C@@H]2CCCC[C@@H]2CN1C[C@@H](O)[C@H](Cc1ccccc1)NC(=O)C1CCCS(=O)(=O)C1 (some centres unmarked) [Example 7]	3 to 140	3				
2H-thiopyran-3-carboxamide, N-(3-[[[(1,1-dimethylethyl amino]-carbonyl](3-methylbutyl) amino]-2-hydroxy-1-(phenylmethyl) propyl]tetrahydro,-1,1-dioxide. [Example 4]			13	63	308,000 nM	
CC(C)CCN(C[C@@H](O)[C@H](Cc1ccccc1)NC(=O)C1CCCS(=O)(=O)C1)S(=O)(=O)c1ccccc1 (some centres unmarked) [Example 8]	3 to 140	4				
CC(C)CN(CC(O)C(Cc1ccccc1)NC(=O)C1CCCS(=O)(=O)C1)S(=O)(=O)NC(C)(C)C (centres unmarked) [Example 9]			140			3 to 140
